The values that follow come from ChEMBL document CHEMBL5291721, “A preclinical secondary pharmacology resource illuminates target-adverse drug reaction associations of marketed drugs” (Nat Commun, 2023).

One assay deals with Acetylcholinesterase (Homo sapiens, UniProt P22303). It is filed as functional.
Assay [1] concerns the target T1, Alpha-2A adrenergic receptor (Homo sapiens, UniProt P08913).
T1 sequence (P08913 whole entry): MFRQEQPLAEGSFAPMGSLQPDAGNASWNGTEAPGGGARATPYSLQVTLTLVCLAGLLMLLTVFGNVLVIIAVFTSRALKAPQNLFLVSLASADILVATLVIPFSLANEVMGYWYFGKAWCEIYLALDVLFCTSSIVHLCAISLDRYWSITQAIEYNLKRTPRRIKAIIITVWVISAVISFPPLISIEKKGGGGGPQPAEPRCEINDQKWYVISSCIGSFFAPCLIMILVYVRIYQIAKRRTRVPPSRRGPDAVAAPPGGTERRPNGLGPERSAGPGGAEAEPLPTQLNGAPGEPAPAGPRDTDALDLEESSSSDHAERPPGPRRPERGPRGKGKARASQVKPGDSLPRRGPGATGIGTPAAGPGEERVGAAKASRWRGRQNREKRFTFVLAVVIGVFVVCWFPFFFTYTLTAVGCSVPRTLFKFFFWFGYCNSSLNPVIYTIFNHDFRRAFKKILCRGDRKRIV

Assay [2] concerns the target T2, Muscarinic acetylcholine receptor M2 (Homo sapiens, UniProt P08172).
T2 sequence (P08172 whole entry): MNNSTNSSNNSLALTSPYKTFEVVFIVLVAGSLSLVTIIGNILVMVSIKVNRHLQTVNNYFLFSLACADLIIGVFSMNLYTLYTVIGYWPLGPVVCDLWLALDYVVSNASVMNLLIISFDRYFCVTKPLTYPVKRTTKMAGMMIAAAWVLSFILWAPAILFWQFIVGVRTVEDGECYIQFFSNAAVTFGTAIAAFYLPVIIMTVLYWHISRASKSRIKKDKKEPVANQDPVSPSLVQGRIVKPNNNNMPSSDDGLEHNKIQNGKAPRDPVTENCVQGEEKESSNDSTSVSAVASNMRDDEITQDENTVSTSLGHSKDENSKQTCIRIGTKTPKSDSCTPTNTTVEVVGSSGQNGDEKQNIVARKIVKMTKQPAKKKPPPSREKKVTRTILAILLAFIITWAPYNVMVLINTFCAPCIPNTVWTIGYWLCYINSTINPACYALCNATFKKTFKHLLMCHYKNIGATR

The target of a further assay is D(1A) dopamine receptor (Homo sapiens, UniProt P21728).
D(1A) dopamine receptor, sequence (P21728 whole entry): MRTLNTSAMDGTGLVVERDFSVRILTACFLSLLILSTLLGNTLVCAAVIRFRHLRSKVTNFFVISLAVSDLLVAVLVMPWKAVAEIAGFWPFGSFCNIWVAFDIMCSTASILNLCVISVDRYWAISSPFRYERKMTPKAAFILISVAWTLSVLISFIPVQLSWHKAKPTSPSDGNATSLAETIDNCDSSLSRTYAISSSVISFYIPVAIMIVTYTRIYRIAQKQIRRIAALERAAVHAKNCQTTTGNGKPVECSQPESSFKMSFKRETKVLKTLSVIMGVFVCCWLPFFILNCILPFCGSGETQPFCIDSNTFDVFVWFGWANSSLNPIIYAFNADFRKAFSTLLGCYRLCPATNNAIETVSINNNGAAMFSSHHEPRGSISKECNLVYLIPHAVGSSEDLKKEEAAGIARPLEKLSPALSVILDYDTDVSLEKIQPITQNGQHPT
Another assay deals with Prothrombin (Homo sapiens, UniProt P00734). In kind it is functional.
For assay [3], the target named is T3, 5-hydroxytryptamine receptor 1A (Homo sapiens, UniProt P08908).
T3 sequence (P08908 whole entry): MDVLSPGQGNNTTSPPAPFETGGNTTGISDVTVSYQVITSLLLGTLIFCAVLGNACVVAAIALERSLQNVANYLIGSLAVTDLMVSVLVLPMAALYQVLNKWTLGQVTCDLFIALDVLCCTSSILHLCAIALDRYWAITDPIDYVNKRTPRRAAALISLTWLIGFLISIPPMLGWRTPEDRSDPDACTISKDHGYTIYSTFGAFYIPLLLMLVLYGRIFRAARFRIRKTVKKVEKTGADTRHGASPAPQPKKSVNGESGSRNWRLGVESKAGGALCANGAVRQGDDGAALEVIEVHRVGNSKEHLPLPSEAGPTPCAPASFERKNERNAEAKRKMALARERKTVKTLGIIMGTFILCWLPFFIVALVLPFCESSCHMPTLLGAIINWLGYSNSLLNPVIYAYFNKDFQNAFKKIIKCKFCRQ

Assay [4] concerns the target 5-hydroxytryptamine receptor 2B (Homo sapiens, UniProt P41595). It is filed as functional, cell-based.
Assay [5] has as its target 3',5'-cyclic-AMP phosphodiesterase 4A (Homo sapiens, UniProt P27815). In kind it is functional.
Assay [6] addresses T4, Thromboxane A2 receptor (Homo sapiens, UniProt P21731).
T4 sequence (P21731 whole entry): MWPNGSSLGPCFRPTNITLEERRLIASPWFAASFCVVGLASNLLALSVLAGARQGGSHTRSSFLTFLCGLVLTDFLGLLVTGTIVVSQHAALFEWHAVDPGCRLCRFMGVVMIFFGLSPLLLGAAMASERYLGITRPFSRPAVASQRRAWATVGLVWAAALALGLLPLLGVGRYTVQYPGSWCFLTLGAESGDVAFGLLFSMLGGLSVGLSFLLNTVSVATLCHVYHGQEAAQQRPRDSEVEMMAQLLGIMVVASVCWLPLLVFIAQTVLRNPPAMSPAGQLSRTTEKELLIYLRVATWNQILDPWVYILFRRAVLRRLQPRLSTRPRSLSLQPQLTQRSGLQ
In kind it is functional, cell-based.

The target of assay [7] is T4, Thromboxane A2 receptor. It is filed as functional, cell-based. The source holds these as a separate data set.
Assay [8] deals with T5, Alpha-1A adrenergic receptor (Homo sapiens, UniProt P35348).
T5 sequence (P35348 whole entry): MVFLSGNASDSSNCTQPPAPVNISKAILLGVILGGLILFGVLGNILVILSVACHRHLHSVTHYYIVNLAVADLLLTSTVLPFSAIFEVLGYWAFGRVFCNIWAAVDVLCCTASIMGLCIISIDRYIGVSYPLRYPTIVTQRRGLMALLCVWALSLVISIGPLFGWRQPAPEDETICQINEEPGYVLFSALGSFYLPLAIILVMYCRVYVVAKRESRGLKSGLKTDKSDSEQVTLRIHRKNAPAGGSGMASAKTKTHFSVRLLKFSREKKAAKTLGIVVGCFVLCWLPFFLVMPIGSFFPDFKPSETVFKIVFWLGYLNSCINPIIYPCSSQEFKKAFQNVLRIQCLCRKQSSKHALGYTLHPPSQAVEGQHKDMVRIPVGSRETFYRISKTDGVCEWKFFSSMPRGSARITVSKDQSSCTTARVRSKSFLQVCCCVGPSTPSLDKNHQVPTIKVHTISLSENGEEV
In kind it is functional, cell-based.

In assay [9] the target is T5, Alpha-1A adrenergic receptor. It is filed as functional, cell-based. This is another data set of the same source.
Also: assay procedure not described here.

3',5'-cyclic-AMP phosphodiesterase 4A, sequence (P27815 whole entry): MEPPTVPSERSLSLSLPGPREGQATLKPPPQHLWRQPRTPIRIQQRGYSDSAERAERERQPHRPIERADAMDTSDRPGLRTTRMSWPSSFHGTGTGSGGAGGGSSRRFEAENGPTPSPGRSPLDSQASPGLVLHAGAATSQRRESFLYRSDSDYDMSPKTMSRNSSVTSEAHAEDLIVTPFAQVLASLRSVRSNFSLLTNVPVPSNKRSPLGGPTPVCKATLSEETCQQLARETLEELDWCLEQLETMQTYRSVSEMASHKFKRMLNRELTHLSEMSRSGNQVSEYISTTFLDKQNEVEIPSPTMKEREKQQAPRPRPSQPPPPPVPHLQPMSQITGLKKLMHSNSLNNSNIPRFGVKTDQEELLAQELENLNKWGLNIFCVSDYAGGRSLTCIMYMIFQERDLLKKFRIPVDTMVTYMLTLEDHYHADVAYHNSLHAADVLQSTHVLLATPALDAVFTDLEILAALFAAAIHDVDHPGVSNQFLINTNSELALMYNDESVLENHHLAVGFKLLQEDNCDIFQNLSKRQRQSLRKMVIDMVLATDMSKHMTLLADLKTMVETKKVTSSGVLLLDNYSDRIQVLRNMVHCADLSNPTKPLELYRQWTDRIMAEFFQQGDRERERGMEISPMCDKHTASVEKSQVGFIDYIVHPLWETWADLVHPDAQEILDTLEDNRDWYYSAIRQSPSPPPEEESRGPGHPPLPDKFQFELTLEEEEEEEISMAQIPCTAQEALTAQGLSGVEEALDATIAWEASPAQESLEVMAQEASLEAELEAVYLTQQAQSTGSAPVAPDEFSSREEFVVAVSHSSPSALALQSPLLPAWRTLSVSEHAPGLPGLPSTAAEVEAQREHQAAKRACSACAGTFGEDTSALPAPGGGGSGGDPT
5-hydroxytryptamine receptor 2B, sequence (P41595 whole entry): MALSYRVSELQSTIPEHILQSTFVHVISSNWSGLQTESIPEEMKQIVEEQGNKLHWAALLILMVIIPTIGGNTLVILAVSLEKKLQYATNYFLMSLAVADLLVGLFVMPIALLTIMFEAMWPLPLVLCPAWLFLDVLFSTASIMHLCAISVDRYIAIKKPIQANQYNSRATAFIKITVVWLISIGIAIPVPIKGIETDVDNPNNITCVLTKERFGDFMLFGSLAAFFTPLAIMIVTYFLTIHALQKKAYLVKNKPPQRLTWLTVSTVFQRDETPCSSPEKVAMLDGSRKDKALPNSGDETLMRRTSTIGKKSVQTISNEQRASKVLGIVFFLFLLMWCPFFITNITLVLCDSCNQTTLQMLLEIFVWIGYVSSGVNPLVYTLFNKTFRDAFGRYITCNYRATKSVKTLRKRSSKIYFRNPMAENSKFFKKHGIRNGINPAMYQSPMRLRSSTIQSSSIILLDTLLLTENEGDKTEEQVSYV
Acetylcholinesterase, sequence (P22303 whole entry): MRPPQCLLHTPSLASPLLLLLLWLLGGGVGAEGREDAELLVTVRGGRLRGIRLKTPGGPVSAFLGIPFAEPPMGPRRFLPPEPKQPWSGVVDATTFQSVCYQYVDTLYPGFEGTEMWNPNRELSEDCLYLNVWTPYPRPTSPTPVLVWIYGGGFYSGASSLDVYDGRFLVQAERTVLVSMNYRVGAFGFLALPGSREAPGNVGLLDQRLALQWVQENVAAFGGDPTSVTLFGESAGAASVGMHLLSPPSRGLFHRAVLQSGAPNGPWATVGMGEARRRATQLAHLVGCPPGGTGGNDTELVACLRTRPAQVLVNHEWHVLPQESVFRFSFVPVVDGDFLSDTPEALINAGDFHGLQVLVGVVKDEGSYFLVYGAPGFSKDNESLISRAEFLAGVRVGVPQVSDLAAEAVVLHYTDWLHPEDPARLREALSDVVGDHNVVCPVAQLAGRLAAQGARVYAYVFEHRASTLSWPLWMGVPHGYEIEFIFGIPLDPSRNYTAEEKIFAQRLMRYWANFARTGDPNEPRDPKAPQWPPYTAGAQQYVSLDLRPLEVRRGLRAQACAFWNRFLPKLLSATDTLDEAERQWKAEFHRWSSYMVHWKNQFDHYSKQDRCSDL

For the compound `CCCCCCCC(=O)N[C@H](CN1CCCC1)[C@H](O)c1ccc2c(c1)OCCO2`, the AC50 (as a rule, the concentration at which the activity in the assay is half-maximal) on Acetylcholinesterase was above 30 µM; in [1], above 30 µM; in [2], above 30 µM; on D(1A) dopamine receptor, above 30 µM; at Prothrombin it was above 30 µM; in assay [3], 14.3 µM. The AC50 (in assay [4]; in assay [5]; at Thromboxane A2 receptor [6]; on Thromboxane A2 receptor [7]) was above 30 µM throughout.
As for `C[C@]1(COc2ccc(N3CCC(Oc4ccc(OC(F)(F)F)cc4)CC3)cc2)Cn2cc([N+](=O)[O-])nc2O1`, the AC50 (at Acetylcholinesterase; in assay [8]; in assay [9]; in [1]; in assay [2]; on D(1A) dopamine receptor) was above 30 µM in each case. Moreover, the AC50 (on Prothrombin; in [3]; in assay [4]; in assay [5]; at Thromboxane A2 receptor [6]; on Thromboxane A2 receptor [7]) was above 30 µM each time.
In the case of `CC(=O)OCC[N+](C)(C)C` [ACETYLCHOLINE], the AC50 (on Acetylcholinesterase; in [8]; in [9]; in assay [1]; on D(1A) dopamine receptor; at Prothrombin) was above 30 µM each time. Besides, the AC50 in [3] was above 30 µM; in assay [4], above 30 µM; in [5], above 30 µM; at Thromboxane A2 receptor [6], 0.34 µM.
With `O=C(Nc1nc(-c2cc(Cl)cs2)c(N2CCN(C3CCCCC3)CC2)s1)c1cnc(N2CCC(C(=O)O)CC2)c(Cl)c1` [AVATROMBOPAG], the AC50 (at Acetylcholinesterase; in assay [1]; in assay [2]; at D(1A) dopamine receptor; at Prothrombin; in [3]) was above 30 µM each time. Moreover, the AC50 in [4] was above 30 µM; in [5], above 30 µM; on Thromboxane A2 receptor [6], above 30 µM; on Thromboxane A2 receptor [7], above 10 µM.
As for `CO[C@@]1(NC(=O)CSCC#N)C(=O)N2C(C(=O)O)=C(CSc3nnnn3C)CS[C@@H]21` [CEFMETAZOLE], the AC50 (at Acetylcholinesterase; in assay [1]; in [2]; on D(1A) dopamine receptor; on Prothrombin; in assay [3]) was above 30 µM each time. Moreover, the concentration at half-maximal activity (AC50) (in [4]; in assay [5]; at Thromboxane A2 receptor [6]; at Thromboxane A2 receptor [7]) was above 30 µM throughout.
Regarding `Oc1c(I)cc(Cl)c2cccnc12` [CLIOQUINOL], the AC50 (on Acetylcholinesterase; in [1]; in assay [2]; at D(1A) dopamine receptor; at Prothrombin; in [3]) was above 30 µM throughout. The AC50 is above 30 µM in assay [4], above 30 µM in assay [5], above 30 µM on Thromboxane A2 receptor [6] and above 10 µM on Thromboxane A2 receptor [7].
With `CCC(=O)O[C@@H]1CC(=O)O[C@H](C)C/C=C/C=C/[C@H](OC(C)=O)[C@H](C)C[C@H](CC=O)[C@H](O[C@@H]2O[C@H](C)[C@@H](O[C@H]3C[C@@](C)(OC(C)=O)[C@@H](OC(=O)CC)[C@H](C)O3)[C@H](N(C)C)[C@H]2O)[C@H]1OC` [MIOCAMYCIN], the AC50 (at Acetylcholinesterase; in assay [1]; in assay [2]; on D(1A) dopamine receptor; at Prothrombin; in assay [3]) was above 30 µM each time. The AC50 (in assay [4]; in [5]; on Thromboxane A2 receptor [6]; on Thromboxane A2 receptor [7]) was above 30 µM each time.
In assay [9], `O=C(CCCN1CCC2(CC1)C(=O)NCN2c1ccccc1)c1ccc(F)cc1` [SPIPERONE] had an AC50 of 0.081 µM.
